For orientation: ED50 means the dose at which the effect has come halfway, by size or by number of responders.

Structures can show the parent of a compound that is named as a salt.

In the assay the test system is Escherichia coli ML4707. The assay is described as follows: in vivo therapeutic efficacy, lethal systemic infection in mice. To be noted: E. coli ML4707 i.p. infection, ICR mice, p.o. at time of injection, mortality 5 days. The method, then:
The in vivo antibacterial activities of pyrido[3,2,1-ij]-1,3,4-benzoxadiazine derivatives prepared by Example 5, Example 30, Example 65 and Example 66 as mentioned below were tested against lethal infection of Escherichia coli ML4707, Pseudomonas aeruginosa 4au542 and Streptococcus pneumoniae 6-001. ICR mice weighing about 20 g were infected by intraperitoneal injection of a corresponding bacterial suspension. The test compounds were administered orally or subcutaneously at the time of injection. […] The respective 50% effective dose (ED50, mg/kg) which protects 50% of the animals from death caused by infection, is shown in Table 3.

For the compound `CCOC(=O)c1cn2c3c(c(N4CCC(N)C4)c(F)cc3c1=O)OCN2C` (centres unmarked) [Example 65, ethyl 10-(3-amino-1-pyrrolidinyl)-9-fluoro-3-methyl-7-oxo-2,3-dihydro-7H-pyrido[3,2,1-ij]-1,3,4-benzoxadiazine-6-carboxylate], the median effective dose (ED50) (Escherichia coli, ML4707, po, 120 h, read-out: 50% effective dose (ED50)) was 1.12 mg/kg.

For the compound `CN1COc2c(N3CCC(N)C3)c(F)cc3c(=O)c(C(=O)O)cn1c23` (centres unmarked) [Example 66, 10-(3-amino-1-pyrrolidinyl)-9-fluoro-3-methyl-7-oxo-2,3-dihydro-7H-pyrido[3,2,1-ij]-1,3,4-benzoxadiazine-6-carboxylic acid hydrochloride], the “50% effective dose (ED50)” value (hydrochloride, 7200 min) stood at 0.51 mg/kg.

The record behind these values is patent US4864023A, “Pyrido(3,2,1-IJ)-1,3,4-benzoxadiazine derivatives” (priority 1988, dated 1989).
